Measured values: PubChem BioAssay (NCI)
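96-well plates; 48 h exposure; 5 concentrations. Endpoints by linear interpolation between flanking doses. Not reached: highest tested concentration assigned. GI50 = concentration required for 50% inhibition of growth. Definition used: TGI = concentration required for complete inhibition of growth.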

Key:
Assay in all cases: NCI tumour cell line growth inhibition, 48 h
NCI-H226 lung = system: NCI-H226 lung
NCI-H460 lung = system: NCI-H460 lung
EKVX NSCLC = system: EKVX NSCLC
CCRF-CEM leukemia = system: CCRF-CEM leukemia
NCI-H522 lung = system: NCI-H522 lung
A498 renal = system: A498 renal
A549 NSCLC = system: A549 NSCLC
HT29 colon = system: HT29 colon
HL-60(TB) leukemia = system: HL-60(TB) leukemia
NCI-H23 lung = system: NCI-H23 lung
IGROV1 ovarian = system: IGROV1 ovarian
U251 CNS = system: U251 CNS
HS 578T breast = system: HS 578T breast
UO-31 renal = system: UO-31 renal
DU-145 prostate = system: DU-145 prostate
MOLT-4 leukemia = system: MOLT-4 leukemia
MDA-MB-231 breast = system: MDA-MB-231 breast
SK-MEL-2 melanoma = system: SK-MEL-2 melanoma
SF-539 CNS = system: SF-539 CNS
SR leukemia = system: SR leukemia
SW-620 colon = system: SW-620 colon
SN12C renal = system: SN12C renal
HOP-92 NSCLC = system: HOP-92 NSCLC
OVCAR-3 ovarian = system: OVCAR-3 ovarian
HCC-2998 colon = system: HCC-2998 colon
PC-3 prostate = system: PC-3 prostate
SF-268 CNS = system: SF-268 CNS
SK-MEL-5 melanoma = system: SK-MEL-5 melanoma
SNB-75 CNS = system: SNB-75 CNS
RPMI-8226 leukemia = system: RPMI-8226 leukemia
HCT-116 colon = system: HCT-116 colon
BT-549 breast = system: BT-549 breast
786-0 renal = system: 786-0 renal
UACC-257 melanoma = system: UACC-257 melanoma
SF-295 CNS = system: SF-295 CNS
HOP-62 NSCLC = system: HOP-62 NSCLC
OVCAR-5 ovarian = system: OVCAR-5 ovarian
LOX IMVI melanoma = system: LOX IMVI melanoma
KM12 colon = system: KM12 colon
SK-OV-3 ovarian = system: SK-OV-3 ovarian
MALME-3M melanoma = system: MALME-3M melanoma
K-562 leukemia = system: K-562 leukemia
MDA-MB-435 = system: MDA-MB-435
HCT-15 colon = system: HCT-15 colon
TK-10 renal = system: TK-10 renal
COLO 205 colon = system: COLO 205 colon
SNB-19 CNS = system: SNB-19 CNS
M14 melanoma = system: M14 melanoma
UACC-62 melanoma = system: UACC-62 melanoma
MCF7 breast = system: MCF7 breast
NCI/ADR-RES ovarian = system: NCI/ADR-RES ovarian
OVCAR-8 ovarian = system: OVCAR-8 ovarian
OVCAR-4 ovarian = system: OVCAR-4 ovarian

Question: For `CCCC[C@H](NC(=O)[C@H]1CCCCN1C)C(=O)N(C)[C@H](C[C@@H](OC(C)=O)c1nc(C(=O)N[C@@H](Cc2ccccc2)C[C@H](C)C(=O)OCC)cs1)C(C)C`, which GI50 (NCI-H226 lung) is on record?
Answer: 0.0857 µM

Question: And the TGI (NCI-H226 lung)?
Answer: 19.1 µM

Question: What about the GI50 (NCI-H460 lung) of the same compound?
Answer: < 0.00333 µM

Question: What about the TGI (NCI-H460 lung) of the same compound?
Answer: 5.65 µM

Question: What about the GI50 (EKVX NSCLC) of the same compound?
Answer: 0.00739 µM

Question: What about the TGI (EKVX NSCLC) of the same compound?
Answer: > 33.3 µM

Question: And the GI50 (CCRF-CEM leukemia)?
Answer: < 0.00333 µM

Question: And the TGI (CCRF-CEM leukemia)?
Answer: 6.21 µM

Question: And the GI50 (NCI-H522 lung)?
Answer: < 0.00333 µM

Question: What about the TGI (NCI-H522 lung) of the same compound?
Answer: 0.775 µM

Question: What about the GI50 (A498 renal) of the same compound?
Answer: < 0.00333 µM

Question: And the TGI (A498 renal)?
Answer: 0.00869 µM

Question: What about the GI50 (A549 NSCLC) of the same compound?
Answer: 0.00444 µM

Question: What about the TGI (A549 NSCLC) of the same compound?
Answer: > 33.3 µM

Question: What about the GI50 (HT29 colon) of the same compound?
Answer: < 0.00333 µM

Question: And the TGI (HT29 colon)?
Answer: 3.6 µM

Question: What about the GI50 (HL-60(TB) leukemia) of the same compound?
Answer: < 0.00333 µM

Question: And the TGI (HL-60(TB) leukemia)?
Answer: 0.00341 µM

Question: What about the GI50 (NCI-H23 lung) of the same compound?
Answer: 0.00641 µM

Question: What about the TGI (NCI-H23 lung) of the same compound?
Answer: > 33.3 µM

Question: What about the GI50 (IGROV1 ovarian) of the same compound?
Answer: 0.00343 µM

Question: What about the TGI (IGROV1 ovarian) of the same compound?
Answer: > 33.3 µM

Question: What about the GI50 (U251 CNS) of the same compound?
Answer: < 0.00333 µM

Question: What about the TGI (U251 CNS) of the same compound?
Answer: 8.58 µM

Question: What about the GI50 (HS 578T breast) of the same compound?
Answer: < 0.00333 µM

Question: And the TGI (HS 578T breast)?
Answer: 8.49 µM

Question: And the GI50 (UO-31 renal)?
Answer: 0.0188 µM

Question: And the TGI (UO-31 renal)?
Answer: 11.9 µM

Question: And the GI50 (DU-145 prostate)?
Answer: < 0.00333 µM

Question: What about the TGI (DU-145 prostate) of the same compound?
Answer: > 33.3 µM

Question: What about the GI50 (MOLT-4 leukemia) of the same compound?
Answer: 0.00382 µM

Question: And the TGI (MOLT-4 leukemia)?
Answer: 20.5 µM

Question: And the GI50 (MDA-MB-231 breast)?
Answer: < 0.00333 µM

Question: And the TGI (MDA-MB-231 breast)?
Answer: 0.341 µM

Question: And the GI50 (SK-MEL-2 melanoma)?
Answer: < 0.00333 µM

Question: And the TGI (SK-MEL-2 melanoma)?
Answer: 13.7 µM

Question: And the GI50 (SF-539 CNS)?
Answer: 0.00346 µM

Question: What about the TGI (SF-539 CNS) of the same compound?
Answer: 0.024 µM

Question: What about the GI50 (SR leukemia) of the same compound?
Answer: < 0.00333 µM

Question: What about the TGI (SR leukemia) of the same compound?
Answer: 6.79 µM

Question: What about the GI50 (SW-620 colon) of the same compound?
Answer: < 0.00333 µM

Question: And the TGI (SW-620 colon)?
Answer: > 33.3 µM

Question: What about the GI50 (SN12C renal) of the same compound?
Answer: 0.00583 µM

Question: And the TGI (SN12C renal)?
Answer: 6.55 µM

Question: What about the GI50 (HOP-92 NSCLC) of the same compound?
Answer: 1.23 µM

Question: What about the TGI (HOP-92 NSCLC) of the same compound?
Answer: 27.3 µM

Question: And the GI50 (OVCAR-3 ovarian)?
Answer: < 0.00333 µM

Question: And the TGI (OVCAR-3 ovarian)?
Answer: 12.2 µM

Question: What about the GI50 (HCC-2998 colon) of the same compound?
Answer: < 0.00333 µM

Question: What about the TGI (HCC-2998 colon) of the same compound?
Answer: 8.39 µM

Question: And the GI50 (PC-3 prostate)?
Answer: < 0.00333 µM

Question: And the TGI (PC-3 prostate)?
Answer: > 33.3 µM

Question: What about the GI50 (SF-268 CNS) of the same compound?
Answer: < 0.00333 µM

Question: What about the TGI (SF-268 CNS) of the same compound?
Answer: 12.1 µM

Question: And the GI50 (SK-MEL-5 melanoma)?
Answer: < 0.00333 µM

Question: And the TGI (SK-MEL-5 melanoma)?
Answer: 0.0473 µM

Question: And the GI50 (SNB-75 CNS)?
Answer: < 0.00333 µM

Question: And the TGI (SNB-75 CNS)?
Answer: 10.8 µM

Question: What about the GI50 (RPMI-8226 leukemia) of the same compound?
Answer: < 0.00333 µM

Question: And the TGI (RPMI-8226 leukemia)?
Answer: 4.85 µM

Question: What about the GI50 (HCT-116 colon) of the same compound?
Answer: < 0.00333 µM

Question: And the TGI (HCT-116 colon)?
Answer: > 33.3 µM

Question: And the GI50 (BT-549 breast)?
Answer: < 0.00333 µM

Question: What about the TGI (BT-549 breast) of the same compound?
Answer: 0.133 µM

Question: What about the GI50 (786-0 renal) of the same compound?
Answer: < 0.00333 µM

Question: And the TGI (786-0 renal)?
Answer: 6.27 µM

Question: What about the GI50 (UACC-257 melanoma) of the same compound?
Answer: 3.56 µM

Question: And the TGI (UACC-257 melanoma)?
Answer: 10.6 µM

Question: What about the GI50 (SF-295 CNS) of the same compound?
Answer: < 0.00333 µM

Question: And the TGI (SF-295 CNS)?
Answer: 4.34 µM

Question: What about the GI50 (HOP-62 NSCLC) of the same compound?
Answer: < 0.00333 µM

Question: What about the TGI (HOP-62 NSCLC) of the same compound?
Answer: 8.61 µM

Question: What about the GI50 (OVCAR-5 ovarian) of the same compound?
Answer: 0.00833 µM

Question: And the TGI (OVCAR-5 ovarian)?
Answer: 21.6 µM

Question: And the GI50 (LOX IMVI melanoma)?
Answer: < 0.00333 µM

Question: What about the TGI (LOX IMVI melanoma) of the same compound?
Answer: 5.64 µM

Question: And the GI50 (KM12 colon)?
Answer: < 0.00333 µM

Question: And the TGI (KM12 colon)?
Answer: > 33.3 µM

Question: What about the GI50 (SK-OV-3 ovarian) of the same compound?
Answer: < 0.00333 µM

Question: And the TGI (SK-OV-3 ovarian)?
Answer: 13 µM

Question: What about the GI50 (MALME-3M melanoma) of the same compound?
Answer: 1.08 µM

Question: And the TGI (MALME-3M melanoma)?
Answer: 7.1 µM

Question: And the GI50 (K-562 leukemia)?
Answer: < 0.00333 µM

Question: What about the TGI (K-562 leukemia) of the same compound?
Answer: 11.1 µM

Question: What about the GI50 (MDA-MB-435) of the same compound?
Answer: < 0.00333 µM

Question: And the TGI (MDA-MB-435)?
Answer: < 0.00333 µM

Question: What about the GI50 (HCT-15 colon) of the same compound?
Answer: 0.00521 µM

Question: What about the TGI (HCT-15 colon) of the same compound?
Answer: 5.73 µM

Question: What about the GI50 (TK-10 renal) of the same compound?
Answer: 7.86 µM

Question: What about the TGI (TK-10 renal) of the same compound?
Answer: > 33.3 µM

Question: And the GI50 (COLO 205 colon)?
Answer: < 0.00333 µM

Question: What about the TGI (COLO 205 colon) of the same compound?
Answer: 0.00712 µM

Question: And the GI50 (SNB-19 CNS)?
Answer: < 0.00333 µM

Question: What about the TGI (SNB-19 CNS) of the same compound?
Answer: > 33.3 µM

Question: What about the GI50 (M14 melanoma) of the same compound?
Answer: < 0.00333 µM

Question: What about the TGI (M14 melanoma) of the same compound?
Answer: 3.62 µM

Question: What about the GI50 (UACC-62 melanoma) of the same compound?
Answer: < 0.00333 µM

Question: And the TGI (UACC-62 melanoma)?
Answer: 24.1 µM

Question: What about the GI50 (MCF7 breast) of the same compound?
Answer: < 0.00333 µM

Question: What about the TGI (MCF7 breast) of the same compound?
Answer: > 33.3 µM

Question: And the GI50 (NCI/ADR-RES ovarian)?
Answer: 0.0828 µM

Question: And the TGI (NCI/ADR-RES ovarian)?
Answer: > 33.3 µM

Question: What about the GI50 (OVCAR-8 ovarian) of the same compound?
Answer: 0.00528 µM

Question: What about the TGI (OVCAR-8 ovarian) of the same compound?
Answer: > 33.3 µM

Question: And the GI50 (OVCAR-4 ovarian)?
Answer: 0.476 µM

Question: What about the TGI (OVCAR-4 ovarian) of the same compound?
Answer: > 33.3 µM
